Laboratory results as given in patent publication US8282944B2, “Metal complexes incorporated within biodegradable nanoparticles and their use” (The University of Akron, priority 2007, dated 2012).

Columns and labels:
A375 melanoma = assay: Anti-proliferative effects on A375 melanoma at 96 hours of growth; type: cell-based; settings: 0.5-25 μm, FIGS. 2 and 3
Method: (§1) The anti-proliferative effects of formula 23, cisplatin and carboplatin were investigated on A375 melanoma at 96 hours of growth and are shown in FIGS. 2 and 3. Percent control growth and percent standard error of the means (SEM) were conducted at various concentrations including 0.5 μm, 1.0 μm, 2.5 μm, 5.0 μm, 10 μm, 15 μm, 20 μm and 25 p.m.

[1] = system: ovarian cancer cell line NuTu-19; assay: MTT test against ovarian cancer cell line NuTu-19; type: cell-based
Method: In one example, a silver(I) complex as represented in formula 23 has been tested for preliminary anticancer activity against the ovarian cancer cell line NuTu-19. Silver complex 23 was chosen because of its overall stability.
Cells were plated at 5000 cells per well in a 96-well plate. All tests were run in triplicate. Cells were allowed to incubate overnight after plating followed by the addition of a 50 μM solution of 23, cisplatin, and thiaether-RhCl3 dissolved in complete cell media. The cells were then incubated for 72 h followed by the addition of MTT dissolved in phosphate buffered saline (PBS) and incubated for another 4 h. A sodium dodecyl sulfate: 0.01M HCl (SDS) solution was then added and the cells were incubated overnight. The SDS solution is added to solubilize the blue formazan crystals that are formed by the reduction of MTT by living cells. The absorbance is then read on a microplate reader. Therefore, the higher the absorbance the more living cells present in cell colony.

ACHN renal carcinoma = assay: Anti-proliferative effects on ACHN renal carcinoma at 96 hours of growth; type: cell-based; settings: 0.5-25 μm, FIGS. 4 and 5
Method: as §1, with “on ACHN renal carcinoma” for “on A375 melanoma”, “FIGS. 4” for “FIGS. 2”, “and 5.” for “and 3.”, “25 μm.” for “25 p.m.”

HT1376 colon carcinoma = assay: Anti-proliferative effects on HT1376 colon carcinoma at 96 hours of growth; type: cell-based; settings: 0.5-25 μm, FIGS. 6 and 7
Method: as §1, with “on HT1376 colon carcinoma” for “on A375 melanoma”, “FIGS. 6” for “FIGS. 2”, “and 7.” for “and 3.”, “25 μm.” for “25 p.m.”

rat models = assay: Toxicity in rat models via IV tail injection; type: in vivo
Excerpt: In one embodiment, the R group is an alcohol. Suitable alcohols include ethanol and propanol. For formula 26, n has a value between 1 and 200.

SMILES | percent control growth compared to cisplatin and carboplatin (A375 melanoma) | cell kill (MTT absorbance, FIG. 1) ([1]; NuTu-19, 50 μM, after 72 h of incubation) | anticancer activity ([1]; NuTu-19, tested for a period of 72 hours, preliminary) | percent control growth compared to carboplatin (ACHN renal carcinoma) | percent control growth compared to cisplatin (ACHN renal carcinoma) | percent control growth compared to carboplatin and cisplatin (HT1376 colon carcinoma) | toxicity (rat models)
CC(=O)[O][Ag][CH]1N(C)C(Cl)=C(Cl)N1C [formula 23] | best control growth | kills all cells | shown anticancer activity | comparable control growth | better control growth | comparable control growth | –
OC1(O)CN2C=CN3Cc4cccc(n4)CN4C=CN(C1)[CH]4[Ag][CH]1N4C=CN1CC(O)(O)CN1C=CN(Cc5cccc(n5)C4)[CH]1[Ag][CH]32 [formula 24] | – | – | – | – | – | – | severe toxicity
